Values after ≈ are worked out from the molar mass of the structure shown.
What was measured:
[1] = Solubility of compound in 15% DMSO by UV-Vis spectrophotometric method; assay type: physicochemical
[2] = system: Tick-borne encephalitis virus; experiment: Antiviral activity against TBEV Absettarov infected in PEK cells assessed as plaque reduction preincubated for 1 hr followed by overlaying with 1.26% methylcellulose and measured after 6 days by gentian violet staining-based assay; assay type: functional, organism-based
[3] = Cytotoxicity against PEK cells after 24 hrs by microscopic method; assay type: cell-based, Sus scrofa; settings: pig
[4] = Cytotoxicity against PEK cells after 7 days by microscopic method; assay type: cell-based, Sus scrofa; settings: pig
[5] = Solubility of compound in 5% DMSO by UV-Vis spectrophotometric method; assay type: physicochemical

Structure (SMILES)	solubility [1] [µM]	EC50 [2] [µM]	CC50 at 24 h [3] [µM]	CC50 at 168 h [4] [µM]	solubility [5] [µM]
O=c1[nH]c(=O)n([C@H]2C[C@H](O)[C@@H](CO)O2)cc1C#Cc1ccc2c3cccc4cccc(c5cccc1c52)c43	7.8 (≈ 3.92 µg/mL)				
[N-]=[N+]=NCO[C@H]1C[C@H](n2cc(C#Cc3ccc4c5cccc6cccc(c7cccc3c74)c65)c(=O)[nH]c2=O)O[C@@H]1CO		0.0054	> 50	35	680 (≈ 379 µg/mL)
O=c1[nH]c(=O)n([C@H]2C[C@H](OCn3cc(CCO)nn3)[C@@H](CO)O2)cc1C#Cc1ccc2c3cccc4cccc(c5cccc1c52)c43		0.05	> 50	> 50	
O=c1[nH]c(=O)n([C@H]2C[C@H](OCn3cc(CCCCO)nn3)[C@@H](CO)O2)cc1C#Cc1ccc2c3cccc4cccc(c5cccc1c52)c43		0.023	> 50	> 50	
O=c1[nH]c(=O)n([C@H]2C[C@H](OCn3cc(CO)nn3)[C@@H](CO)O2)cc1C#Cc1ccc2c3cccc4cccc(c5cccc1c52)c43		0.03	> 50	> 50	
O=c1[nH]c(=O)n([C@H]2C[C@H](OCn3cc(CCCO)nn3)[C@@H](CO)O2)cc1C#Cc1ccc2c3cccc4cccc(c5cccc1c52)c43		0.037	> 50	> 50	
CSCO[C@H]1C[C@H](n2cc(C#Cc3ccc4c5cccc6cccc(c7cccc3c74)c65)c(=O)[nH]c2=O)O[C@@H]1CO		0.0077	> 50	> 50	150 (≈ 84.4 µg/mL)
